Experimental data published in article PMC7002685, “Inhibition of vascular calcification by inositol phosphates derivatized with ethylene glycol oligomers” (Nature Communications, 2020).
Several values for one entry are separate records, joined by “and”; a condition that tells them apart may be missing. Identical values can stand only once.

Legend:
PPARγ = molecular target: T1, PPARγ (Homo sapiens, UniProt P37231); assay: Off-target 267500; format: binding
T1 construct: purchased Eurofins Panlabs Discovery Services Taiwan, Ltd
T1 sequence (P37231 whole entry): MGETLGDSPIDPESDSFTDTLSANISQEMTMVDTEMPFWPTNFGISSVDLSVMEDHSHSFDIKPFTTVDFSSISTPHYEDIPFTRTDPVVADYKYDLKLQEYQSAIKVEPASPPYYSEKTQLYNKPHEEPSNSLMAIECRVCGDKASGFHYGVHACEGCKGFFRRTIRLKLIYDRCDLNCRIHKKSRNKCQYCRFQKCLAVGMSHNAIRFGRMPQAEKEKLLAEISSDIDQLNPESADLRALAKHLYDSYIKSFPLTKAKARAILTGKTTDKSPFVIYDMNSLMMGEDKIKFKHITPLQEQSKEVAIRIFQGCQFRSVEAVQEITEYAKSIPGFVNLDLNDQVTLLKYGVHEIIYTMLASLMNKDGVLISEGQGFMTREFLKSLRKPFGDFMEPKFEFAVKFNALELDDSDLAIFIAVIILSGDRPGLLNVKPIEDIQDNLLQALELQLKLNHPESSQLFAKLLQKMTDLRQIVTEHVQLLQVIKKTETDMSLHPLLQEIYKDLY
Description: (§1) The potential off-target activity of 10 µM (OEG2)2-IP4 was assessed against a panel of 87 enzymes, receptors, or ion channels that are used in standard safety pharmacology screens.
(§2) 3.2. Off-target screening assay
(§3) The experiments were conducted by a contract research organization (Eurofins Panlabs Discovery Services Taiwan, Ltd.) and details on the respective assays can be retrieved via the catalog number provided in Supplementary Table 11 from the company’s webpage
(§4) (https://www.eurofinsdiscoveryservices.com/). […]
(§5) At sacrifice the left tibia of animals of the rat model with dietary adenine/high-phosphate-induced uremia and VC was collected, fixed with 70% v/v EtOH and embedded in methyl methacrylate. The trabecular bone compartment is known to be the most metabolic active i.e. actively re-structured bone compartment in CKD. Therefore, histomorphometric and micro-computed tomography (µCT) analysis of bone was performed on the trabecular compartment. Tibial sections were Goldner-stained for histomorphometric analysis of the proximal metaphysis using the AxioVision Release 4.5 software, as […]
(§6) described previously5. […]

Angiotensin AT1 = molecular target: T2, Angiotensin AT1 (Homo sapiens, UniProt P30556); assay: Off-target 210030; format: binding
T2 construct: purchased Eurofins Panlabs Discovery Services Taiwan, Ltd
T2 sequence (P30556 whole entry): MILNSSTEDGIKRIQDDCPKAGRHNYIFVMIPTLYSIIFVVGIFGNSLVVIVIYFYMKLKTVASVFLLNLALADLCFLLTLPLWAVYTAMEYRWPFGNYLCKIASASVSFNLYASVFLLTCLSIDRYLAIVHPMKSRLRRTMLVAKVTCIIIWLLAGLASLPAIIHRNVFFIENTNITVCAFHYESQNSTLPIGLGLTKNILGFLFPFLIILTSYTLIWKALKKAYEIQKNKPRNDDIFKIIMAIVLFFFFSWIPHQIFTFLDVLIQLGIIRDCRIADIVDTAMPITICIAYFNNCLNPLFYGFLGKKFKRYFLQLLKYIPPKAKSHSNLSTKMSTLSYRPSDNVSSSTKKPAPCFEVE
Description: as §1, §2, §3, §4, §5, §6

Cyclooxygenase COX-1 = molecular target: T3, Cyclooxygenase COX-1 (Homo sapiens, UniProt P23219); assay: Off-target 116020; format: biochemical
T3 construct: purchased Eurofins Panlabs Discovery Services Taiwan, Ltd
T3 sequence (P23219 24-599): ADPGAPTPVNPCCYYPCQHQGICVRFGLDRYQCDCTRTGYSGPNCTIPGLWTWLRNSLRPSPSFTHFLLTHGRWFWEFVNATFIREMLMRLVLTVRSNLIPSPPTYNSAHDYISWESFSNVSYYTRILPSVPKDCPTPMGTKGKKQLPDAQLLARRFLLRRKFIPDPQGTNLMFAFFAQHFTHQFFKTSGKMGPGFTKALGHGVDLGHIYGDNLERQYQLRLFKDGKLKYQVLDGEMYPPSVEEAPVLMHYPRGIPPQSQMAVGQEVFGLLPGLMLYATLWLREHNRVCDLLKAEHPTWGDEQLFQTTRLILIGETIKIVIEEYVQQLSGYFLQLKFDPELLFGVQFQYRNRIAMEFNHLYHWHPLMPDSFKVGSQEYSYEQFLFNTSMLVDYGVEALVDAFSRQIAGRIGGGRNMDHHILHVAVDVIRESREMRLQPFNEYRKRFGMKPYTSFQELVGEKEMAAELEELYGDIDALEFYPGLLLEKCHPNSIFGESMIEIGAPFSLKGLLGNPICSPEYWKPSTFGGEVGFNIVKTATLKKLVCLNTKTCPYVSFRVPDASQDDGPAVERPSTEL
Description: as §1, §2
(§7) The experiments were conducted by a contract research organization (Eurofins Panlabs Discovery
(§8) Services Taiwan, Ltd.) and details on the respective assays can be retrieved via the catalog number
(§9) provided in Supplementary Table 11 from the company’s webpage
as §4

Opiate δ1 (OP1, DOP) = molecular target: T4, Opiate δ1 (OP1, DOP) (Homo sapiens, UniProt P41143); assay: Off-target 260130; format: binding
T4 construct: purchased Eurofins Panlabs Discovery Services Taiwan, Ltd
T4 sequence (P41143 whole entry): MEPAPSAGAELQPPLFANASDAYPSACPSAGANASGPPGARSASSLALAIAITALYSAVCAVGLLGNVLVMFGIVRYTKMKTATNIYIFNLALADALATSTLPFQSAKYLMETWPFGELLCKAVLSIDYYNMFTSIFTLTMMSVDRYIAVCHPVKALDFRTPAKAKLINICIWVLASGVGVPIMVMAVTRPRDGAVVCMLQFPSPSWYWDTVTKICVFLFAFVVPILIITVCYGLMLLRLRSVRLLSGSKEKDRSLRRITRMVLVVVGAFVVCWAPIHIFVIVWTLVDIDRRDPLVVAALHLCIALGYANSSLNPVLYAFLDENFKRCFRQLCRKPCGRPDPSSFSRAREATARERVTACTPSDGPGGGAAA
Description: as §1, §2, §7, §8, §9, §4

[1] = test system: Calcium Channel L-Type, Phenylalkylamine; assay: Off-target 215000; format: binding, Rat; settings: 10 µM
Description: as §1, §2, §7, §8, §9, §4

[2] = molecular target: T5, Serotonin (5-Hydroxytryptamine) 5-HT3 (Homo sapiens, UniProt P46098); assay: Off-target 271910; format: binding
T5 construct: purchased Eurofins Panlabs Discovery Services Taiwan, Ltd
T5 sequence (P46098 24-478): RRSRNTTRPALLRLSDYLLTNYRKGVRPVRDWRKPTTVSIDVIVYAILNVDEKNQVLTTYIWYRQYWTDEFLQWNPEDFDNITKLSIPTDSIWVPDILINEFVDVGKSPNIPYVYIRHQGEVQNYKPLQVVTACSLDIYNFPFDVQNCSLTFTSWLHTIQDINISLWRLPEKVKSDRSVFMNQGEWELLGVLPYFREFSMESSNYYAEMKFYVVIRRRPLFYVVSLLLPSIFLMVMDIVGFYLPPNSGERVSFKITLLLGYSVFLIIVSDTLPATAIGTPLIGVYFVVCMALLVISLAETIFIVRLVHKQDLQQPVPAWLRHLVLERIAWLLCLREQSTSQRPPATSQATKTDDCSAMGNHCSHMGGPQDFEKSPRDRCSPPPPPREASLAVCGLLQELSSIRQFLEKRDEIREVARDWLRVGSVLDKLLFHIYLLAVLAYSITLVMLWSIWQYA
Description: as §1, §2, §7, §8, §9, §4

[3] = 18F-NaF micro-PET/CT uptake on calcified human aortic valves ex vivo; format: binding
Description: To investigate (OEG2)2-IP4 interaction with calcified tissues in a clinically relevant context, a competitive binding assay using ^18F-NaF was applied on severely calcified human femoral arteries and native aortic valves ex vivo. […] First, ^18F-NaF uptake was measured on tissue samples treated with vehicle (human serum) and thereafter, using the same tissue samples, treated with (OEG2)2-IP4 in serum.
Triplicate aliquots of CPP2s (20 µg Ca/mL) in 100 μL assay buffer (100 mM HBS, pH 7.4 (RT)) were incubated for 1 h at RT in the presence of increasing concentrations of compounds in 50 μL Milli-Q water and ^18F-NaF (1 nM) in 50 μL assay buffer, resulting in a total incubation volume of 200 μL (^18F-NaF was prepared using a FASTlab synthesizer (GE Healthcare, Little Chalfont, UK) and commercially available ^18F-NaF cassettes (GE Healthcare)). Maximum radiotracer binding was determined by incubating CPP2s with ^18F-NaF (1 nM) only. The reaction was terminated by rapid filtration through a SOLAμ™ SPE plate (HRP 2 mg/mL 96-well plate, 22 μm; Thermo Fisher Scientific). SPE individual column matrices were washed twice rapidly in assay buffer and radioactivity on the filters determined by an automatic gamma counter (Wizard2 Gamma Counter, Perkin Elmer, Waltham, MA, USA). […]

bone = assay: Tibial bone histomorphometry, adenine model; format: in vivo, male Wistar rats
Description: At sacrifice the left tibia of animals of the rat model with dietary adenine/high-phosphate-induced uremia and VC was collected, fixed with 70% v/v EtOH and embedded in methyl methacrylate. The trabecular bone compartment is known to be the most metabolic active i.e. actively re-structured bone compartment in CKD. Therefore, histomorphometric and micro-computed tomography (µCT) analysis of bone was performed on the trabecular compartment. Tibial sections were Goldner-stained for histomorphometric analysis of the proximal metaphysis using the AxioVision Release 4.5 software, as described previously5. The total bone area (as percentage of total tissue area), osteoid area (as percentage of total bone area), and mineralized bone area (as percentage of total tissue area) were calculated from the primary measurements. Images of osteoclast and osteoblast were taken (Leica

Muscarinic M1 = molecular target: T6, Muscarinic M1 (Homo sapiens, UniProt P11229); assay: Off-target 252610; format: binding
T6 construct: purchased Eurofins Panlabs Discovery Services Taiwan, Ltd
T6 sequence (P11229 whole entry): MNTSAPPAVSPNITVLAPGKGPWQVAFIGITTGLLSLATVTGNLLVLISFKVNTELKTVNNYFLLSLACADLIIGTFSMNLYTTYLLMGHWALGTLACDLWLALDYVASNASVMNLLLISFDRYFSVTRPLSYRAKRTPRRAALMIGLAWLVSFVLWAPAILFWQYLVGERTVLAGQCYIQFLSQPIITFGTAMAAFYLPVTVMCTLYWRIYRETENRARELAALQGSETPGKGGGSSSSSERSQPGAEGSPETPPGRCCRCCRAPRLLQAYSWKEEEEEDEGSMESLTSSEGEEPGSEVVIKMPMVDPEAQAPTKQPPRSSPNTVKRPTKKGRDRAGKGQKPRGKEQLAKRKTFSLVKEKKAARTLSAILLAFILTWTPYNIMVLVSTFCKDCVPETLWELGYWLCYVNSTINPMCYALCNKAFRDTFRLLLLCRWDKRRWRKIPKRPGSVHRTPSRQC
Description: as §1, §2, §3, §4, §5, §6

COCCOCCO[C@@H]1[C@@H](OP(=O)(O)O)[C@H](OCCOCCOC)[C@@H](OP(=O)(O)O)[C@@H](OP(=O)(O)O)[C@H]1OP(=O)(O)O [(OEG2)2-IP4, 4,6-Di-O-(methoxy-diethyleneglycol)-myo-inositol-1,2,3,5-tetrakis(phosphate)] gave an inhibition at 10 µM (PPARγ) of 2%, an inhibition at 10 µM (Angiotensin AT1) of 0% and an inhibition at 10 µM (Cyclooxygenase COX-1) of -2%. For the same molecule, the inhibition at 10 µM (Opiate δ1 (OP1, DOP)) was -2%, the “% Inhibition” value [1] was -4% and the inhibition at 10 µM [2] was 8%. For the same molecule, the “change of 18F-NaF uptake vs vehicle” value ([3]; 8.6 μM in human serum) was −33%, the “maximum average 18F binding (18F-NaF-PET)” value ([3]; IC90 concentration in human serum, individual samples Fig. 3k, unit not given) was 547.591 and 685.802 and 706.308 and the “% bone area compared with vehicle” value (bone; 5, 15, 50 mg/kg/day) was “significantly higher”. The “osteoblast and osteoclast morphology” value (bone; rat, in vivo) was “not impacted”, the osteoid area (bone; treatment groups) was “distinct increase in the osteoid area” and the “mineralized trabecular bone area” value (bone; various doses tested) was “unchanged mineralized trabecular bone area”. It also gave an inhibition at 10 µM (Muscarinic M1) of -6%.
